Experimental data as given in US20220304974A1, “COMPOSITION COMPRISING GOSSYPETIN FOR PREVENTION OR TREATMENT OF NEURODEGENERATIVE DISEASE” (NOVMETAHEALTH CO.,LTD., priority 2019, published 2022).

Key:
[1] = tested on: 5×FAD Alzheimer's disease-induced mice; assay: Y-maze test in Alzheimer's disease-induced mice; format: in vivo, mouse; conditions: for cognitive function (Y-maze test): 5×FAD mice, oral 10 mg/kg for 15 weeks from 8 weeks of age, FIG. 12
Description: (§1) […] Thereafter, Y-maze and Morris water maze tests were performed, which are widely used to check cognitive function. Specifically, short-term memory was assessed through the Y-maze test. The Morris water maze test was performed one week after the Y-maze test. Each mouse was trained to remember the location of the platform for 5 days, and then the time for the mouse to reach the platform was measured. On day 6 after the platform memory training, the platform was removed from the water tank, and the frequency of mouse staying at the site where the platform had been located was measured.

[2] = tested on: 5×FAD Alzheimer's disease-induced mice; assay: Morris water maze test in Alzheimer's disease-induced mice; format: in vivo, mouse; conditions: 5×FAD mice; for memory of the platform site (water maze test): oral 10 mg/kg for 16 weeks from 8 weeks of age, platform removed on Day 6, FIG. 13
Description: as §1
In the water maze test, the mice were trained to find a platform placed under the surface in a water tank for 5 days, and then on Day 6, the platform was removed, and it was monitored how well the mice remembered the site where the platform had been located.

[3] = tested on: polyglutamine protein aggregation in the cells; assay: Intracellular polyglutamine protein aggregation, comparison of compounds (fluorescence microscope); format: cell-based; conditions: compared with the drug-untreated control group; FIGS. 11A and 11B
Description: (§2) In addition, cells were treated with each compound together with the induction of polyglutamine protein aggregation, and the reduction in amount of protein aggregation in the cells was observed using a fluorescence microscope. The total area of protein aggregation occurring in the cells, average size of protein aggregation, and inhibition rate of protein aggregation compared with the drug-untreated control group are shown in the table. The cytotoxicity of each compound was also examined.

microglia and astrocytes = assay: Gliosis analysis with IBA-1 and GFAP antibodies in brain slices; format: in vivo, mouse; conditions: hippocampus and frontal lobe tissues; FIGS. 8 and 9
Description: The brains were extracted from the groups of Alzheimer's disease-induced mice fed and not fed with gossypetin and were made into slices, and then the distribution and proliferation of microglia and astrocytes were analyzed using an antibody against IBA-1, a specific protein of microglia, and an antibody against GFAP, a specific protein of astrocytes.

VRK2 [4] = target: T1, VRK2 (Homo sapiens, UniProt Q86Y07); assay: Binding between VRK2 and gossypetin-Sepharose 4B
T1 sequence (Q86Y07 whole entry, species assumed): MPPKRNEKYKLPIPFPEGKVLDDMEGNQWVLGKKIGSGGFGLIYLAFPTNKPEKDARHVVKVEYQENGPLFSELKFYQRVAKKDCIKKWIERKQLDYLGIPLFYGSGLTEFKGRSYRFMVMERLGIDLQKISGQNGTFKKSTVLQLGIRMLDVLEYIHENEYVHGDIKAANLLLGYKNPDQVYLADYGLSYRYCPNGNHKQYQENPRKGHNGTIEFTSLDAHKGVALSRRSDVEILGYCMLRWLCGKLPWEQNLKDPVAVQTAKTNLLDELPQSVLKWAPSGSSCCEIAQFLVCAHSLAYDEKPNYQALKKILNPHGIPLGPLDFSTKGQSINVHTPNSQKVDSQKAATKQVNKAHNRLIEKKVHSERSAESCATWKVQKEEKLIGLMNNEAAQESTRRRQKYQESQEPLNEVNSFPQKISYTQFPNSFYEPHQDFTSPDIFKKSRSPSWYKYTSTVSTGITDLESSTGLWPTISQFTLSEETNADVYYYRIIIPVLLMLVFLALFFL
Text: First, gossypetin was chemically bound to Sepharose 4B (FIG. 2A), and then the binding between gossypetin and VRK2 was investigated.

cells = assay: Cytotoxicity of each compound; format: cell-based; conditions: FIG. 11C
Description: as §2

chaperone protein CCT-4 = assay: Chaperone protein preservation (amount of CCT-4); conditions: addition of gossypetin; FIG. 2E
Aβ amyloid aggregates = assay: Immunohistochemistry staining of Aβ amyloid aggregates in brain slices; format: in vivo, mouse; conditions: hippocampus and frontal lobe tissues; mice fed with gossypetin; FIGS. 6A to 6F
Description: The brains were extracted from the groups of Alzheimer's disease-induced mice fed and not fed with gossypetin and were made into slices, and then the formation of Aβ amyloid aggregates was analyzed using immunohistochemistry staining.

VRK2 [5] = target: T1, VRK2; assay: VRK2 activity inhibition (in vitro kinase assay, autophosphorylation); format: biochemical
Text: The kinase VRK2 is known to prevent the elimination of polyglutamine aggregates by regulating TRiC chaperone protein in cells.
The cytotoxicity of each compound was also examined.

[6] = tested on: U2OS cells expressing VRK2; assay: Intracellular polyglutamine protein aggregation (dot blot, electrophoresis, microscopy), different concentrations of gossypetin; format: cell-based
Description: Polyglutamine protein aggregation is a cause of a degenerative brain disease. In order to investigate the polyglutamine protein aggregation inhibitory effect of gossypetin, U2OS cells expressing VRK2 were treated with different concentrations of gossypetin after the expression of a green fluorescent protein-conjugated polyglutamine protein, and a dot blot assay was performed. The protein aggregates formed in the cells were observed via electrophoresis, and the intracellular protein aggregate formation was observed using a microscope and quantitatively expressed.

SMILES	cognitive function (Y-maze test) [1]	memory of the platform site (water maze test) [2]	inhibition of the intracellular protein aggregation [3]	short-term memory (Y-maze test) ([1]; 7-week-old 5×FAD mice, oral 10 mg/kg for 14 weeks, FIG. 3C)	hyperactivity of microglia and astrocytes (gliosis) (microglia and astrocytes)	interaction between gossypetin and VRK2 (competition by added gossypetin) (VRK2 [4]; addition of gossypetin, FIG. 2C)	binding between gossypetin and VRK2 (VRK2 [4]; gossypetin-Sepharose 4B vs Sepharose 4B, FIG. 2B)	cytotoxicity (cells)	time to find the platform (escape latency) ([2]; oral 10 mg/kg for 14 weeks, 5 days training, FIG. 4)	frequency of staying at the site where the platform had been located ([2]; oral 10 mg/kg for 14 weeks, platform removed, day 6, FIG. 5)	amount of the chaperone protein CCT-4 (chaperone protein CCT-4)	Aβ amyloid aggregates (Aβ amyloid aggregates)	VRK2 activity (VRK2 [5]; different concentrations of gossypetin, FIG. 2D)	autophosphorylation activity of VRK2 (VRK2 [5]; same concentration of 25 μM, FIG. 10)	number of protein aggregate-bearing cells ([6]; FIGS. 1F to 1H)	polyglutamine protein aggregates ([6]; different concentrations of gossypetin, FIGS. 1A and 1B)
O=C(/C=C/c1ccc(O)c(O)c1)O[C@H](Cc1ccc(O)c(O)c1)C(=O)O [rosmarinic acid, reference compound]	did not contribute to the alleviation of such cognitive function decline	not significantly restored	–	–	–	–	–	–	–	–	–	–	–	–	–	–
O=c1c(O)c(-c2ccc(O)c(O)c2)oc2c(O)c(O)cc(O)c12 [gossypetin, 2-(3,4-dihydroxyphenyl)-3,5,7,8-tetrahydroxy-4H-chromen-4-one]	restored the behavioral alteration to an almost normal level	excellent memory comparable to normal mice	43%	improvement in short-term memory to a level similar to that of normal mice	significantly reduced	specific	VRK2 and gossypetin bound to each other	not showing toxicity in cells	found the platform in a shorter amount of time which was almost as fast as normal mice	increased frequency of staying at the site where the platform had been located	not decreased but increased	significantly reduced	inhibited depending on the concentration of gossypetin	most strongly inhibited	decreased	reduced depending on the gossypetin concentration
